Results on 22 compounds are retold here after patent US6689397B2, “Identification of snake repellents” (priority 1999, dated 2004).

For assay [1], the system named is Brown tree snakes (Boiga irregularis). As to the kind of experiment: Aerosol tests: 2 s aerosol spray onto snake's head, behavior observed for 5 min. To be noted: single reagents; for movement when sprayed / latency to response (movement latency): 2 s aerosol; for movement when sprayed: 5 min observation; for latency to response (movement latency): post-hoc comparison with amyl acetate; for activity category from cluster analysis of behaviors (clusters I-V): Ward's method on VM, SM, LAT, TOT, % VM, % SM. The format is in vivo. The method, then:
Brown tree snakes (Boiga irregularis), N=400, were captured on the island of Guam along forest-jungle edge using modified minnow traps with live mice lures or by hand after being spot-lighted on fences. Snakes were individually housed in plastic containers until tested. The holding containers were housed in a military warehouse on Andersen Air Force Base, Guam under a 12:12 light:dark cycle. In general snakes were tested only once. […] Capture of snakes occurred during three separate visits to the island: 1997, 1998, 1999.
Essential oils and individual chemicals were diluted into an inert carrier liquid (water) for the purpose of testing. An emulsifying agent (3× yucca extract) was added to the composition to stabilize the water insoluble essential oils and individual chemicals in aqueous solution. The test formulations consisted of 1% test agent (i.e., a specific essential oil or chemical), 1% 3× yucca extract and 98% water. The formulated contents were held in a reservoir in which a siphon was suspended. Pressurized air, contained in an aerosol can was passed over the orifice of the siphon to create a negative pressure which would drawn the test formulation up through the siphon and eject the formulated contents and pressurized air through a small bore nozzle to create an atomized liquid, i.e. aerosol spray.
For testing, the holding tub was moved to the observation room and the solid lid was replaced with a lid with a screen insert. […] Snakes that became active as a result of the handling were not used in the assay. After a 15 min interval where the snake remained in a coiled position, aerosol was sprayed directly onto the snake's head for 2 s at a distance of 30 mm. Immediately after aerosol application, the observer moved to an observation distance of 3 m. We limited observations to the 5 min following aerosol applications. […] Also, in pilot tests, and with only few exceptions, the escape activity of the snake given an acute (2 s) exposure to the chemical subsided after 5 min.
Behaviors were categorized by a trained observer as follows: VM was a violent, vigorous movement by snakes exposed to the aerosol. This movement was characterized by undirected flailing and vigorous probing of the creases of the test chamber. SM, was characterized as a directed, slow search behavior, often accompanied by tongue flicks. This behavior could also be classified as investigatory behavior. In both cases the duration (s) of these behaviors was noted. The time from the application of the stimulus to the onset of either VM or SM was defined as the latency, LAT-VM and LAT-SM, respectively. For the purposes of analysis we used the latency to the first locomotory behavior, LAT, as the quantifiable metric. TOT was defined as the total amount of time (s) that a snake was engaged in locomatory behavior. The time spent in each locomatory behavior relative to the total active time was defined as % VM and % SM, respectively.
We used a fixed effects analysis of variance for the a priori comparison across chemicals. In the first set of analyses, essential oil was the between measures effects while behavior was the dependent variable. We used a post hoc Tukey's Honest Significance Difference test to isolate differences among test stimuli for each of the behavioral measures. Similar analyses were performed for the single reagents. We also categorized reagents into groups that yielded similar combinations of behaviors using cluster analysis (STATISTICA 1999). Amalgamation of clusters was achieved using Ward's method. This approach is distinct from most clustering algorithms in that it uses an analysis of variance approach to evaluate the distances between clusters. The distance measure used was a Chebychev distance. This approach tends to maximize the number of clusters because it is sensitive to differences among objects along single dimensions. The behavioral dimensions considered were: VM, SM, LAT, TOT, % VM, and % SM.

The next assay deals with brown treesnakes. The conditions noted are these: in vivo; cited from earlier work.

Molecules are shown by their SMILES.

With `CC12CCC(CC1=O)C2(C)C` (stereo not shown) [camphor], in assay [1], the movement when sprayed result is recorded as “did not move at all”, the “latency to response (movement latency)” value is given as “longer than amyl acetate” and the “activity category from cluster analysis of behaviors (clusters I-V)” value (shortened to “activity category from cluster analysis”) is reported as “did not react”. Regarding `CCCC(=O)OCC` [ethyl butyrate], in assay [1], the “latency to response (movement latency)” value was “longer than amyl acetate” and the “activity category from cluster analysis” value is “only weakly active”.

Turning to `COC(=O)c1ccccc1N` [methyl anthranilate], the “activity category from cluster analysis” value in assay [1] is on record as “highly irritating, but poor at promoting long-term locomatory behavior”. Consider `CC1=CC=C(C(C)C)CC1` [a-terpinene], for which, in assay [1], the “latency to response (movement latency)” value is recorded as “longer than amyl acetate” and the “activity category from cluster analysis” value is “only weakly active”. In the case of `C=CCc1ccc(O)c(OC)c1` [eugenol], the “activity category from cluster analysis” value in assay [1] is “moderately active”. On the same count and under the same terms, next, `CC(C)[C@@H]1CC[C@@H](C)CC1=O` [menthone]: “highly irritating, but poor at promoting long-term locomatory behavior”. Turning to `CC(C)=CCC/C(C)=C\CO` [nerol], in assay [1], the “latency to response (movement latency)” value was “longer than amyl acetate” and the “activity category from cluster analysis” value is reported as “moderately active”. For `CC(C)C12CCC(C)(CC1)O2` [1,4-cineole], the “activity category from cluster analysis” value in assay [1] is “most active”.

As for `CCOC(=O)Cc1ccccc1` [ethyl phenyl acetate], the “activity category from cluster analysis” value in assay [1] is given as “moderately active”.

In the case of `COC(=O)c1ccccc1O` [methyl salicylate], the “activity category from cluster analysis” value in assay [1] is “most active”. Still for that read-out and setting: under `C/C=C/c1ccc(OC)cc1` [trans-anethole] stands “most active”; under `CC1=CCC2CC1C2(C)C` (stereo not shown) [a-pinene], “moderately active”. On to `CC(C)=CCC/C(C)=C/CO` [geraniol], for which, in assay [1], the movement when sprayed entry is recorded as “did not move at all”, the “latency to response (movement latency)” value is “longer than amyl acetate” and the “activity category from cluster analysis” value was “did not react”. For the compound `CCCCCOC(C)=O` [amyl acetate], in assay [1], the “latency to response (movement latency)” value is “shortest” and the “activity category from cluster analysis” value was “highly irritating, but poor at promoting long-term locomatory behavior”. For `C=CC(C)(O)CCC=C(C)C` (stereo not shown) [linalool], in assay [1], the “latency to response (movement latency)” value was “longer than amyl acetate” and the “activity category from cluster analysis” value is reported as “only weakly active”. `CC(C)=CCCC(C)=CC=O` [citral]: the “activity category from cluster analysis” value in assay [1] is “most active”.

`c1ccc2ccccc2c1` [Naphthalene]: in the assay on brown treesnakes, the “irritant to brown treesnakes” value is reported as “not an irritant”. With `CC(=O)OC/C=C(\C)CCC=C(C)C` [geranyal acetate], the “activity category from cluster analysis” value in assay [1] is given as “most active”.

As for `O=CC=Cc1ccccc1` [cinnamaldehyde], the “activity category from cluster analysis” value in assay [1] is “most active”. Regarding `O=C(O)C=Cc1ccccc1` [cinnamic acid], in assay [1], the movement when sprayed entry is “did not move at all”, the “latency to response (movement latency)” value is given as “longer than amyl acetate” and the “activity category from cluster analysis” value was “did not react”. As to `COc1cccc(C=O)c1` [m-anisaldehyde], in assay [1], the “activity category from cluster analysis” value was “most active”. On to `C=C(C)[C@H]1CC=C(C)CC1` [limonene], for which, in assay [1], the “latency to response (movement latency)” value is on record as “longer than amyl acetate” and the “activity category from cluster analysis” value is on record as “only weakly active”.
